Laboratory results: patent publication US11214803B2, “Modulators of YAP1 expression” (Ionis Pharmaceuticals, Inc., priority 2019, dated 2022)
Strand notation (5' to 3'): a small letter for the sugar, then the base; units joined by * are phosphorothioate-linked, units joined directly phosphodiester-linked; [ ] holds rarer units or linkages, { } end groups; capitals alone tell only the bases. k = constrained ethyl (cEt); [5mC] = 5-methylcytosine; d = 2'-deoxy (DNA)

Key:
Yap1 mRNA [1] = assay: Antisense inhibition of human Yap1 in A-431 cells by cEt gapmers, single dose (Example 2, RTS4814); format: cell-based; conditions: 3-10-3 cEt gapmers targeting SEQ ID NO.: 1, and 2
Procedure, shortened: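 Read-out is Yap1 mRNA as percent of untreated cells, by real-time RT-PCR (probe set RTS4814) normalized to total RNA via RIBOGREEN. Cells were A-431 dosed with 2,000 nM gapmer without transfection for approximately 48 hours.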

Yap1 mRNA [2] = assay: Dose-dependent inhibition of human Yap1 in A-431 cells (Example 8, 10,000 cells per well, RTS4814); format: cell-based; conditions: free uptake, approximately 48 hours, RTS4814; for Yap1 mRNA, % UTC: A-431 cells, 10,000 cells per well; for IC50: A-431 cells, linear regression on log/linear plot
Procedure, shortened: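 A-431 cells (10,000/well) dosed with modified oligonucleotides by free uptake; Yap1 mRNA measured ~48 h later with primer-probe set RTS4814, normalized to total RNA (RIBOGREEN). Values are % of untreated control; IC50 from linear regression on log/linear plot.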

[3] = Table 32, Yap1 mRNA, percent of untreated control
[4] = Yap1 mRNA as percent of untreated control, A-431 cells, Table 31
[5] = Table 33, Yap1 mRNA, percent of untreated control

Row | Substance | YAP1 (% UTC) (Yap1 mRNA [1]; [3]) | Yap1 mRNA, % UTC (Yap1 mRNA [2]; 31.3 nM) [% UTC] | Yap1 mRNA, % UTC (Yap1 mRNA [2]; 125.0 nM) [% UTC] | Yap1 mRNA, % UTC (Yap1 mRNA [2]; 500.0 nM) [% UTC] | Yap1 mRNA, % UTC (Yap1 mRNA [2]; 2000.00 nM) [% UTC] | IC50 (Yap1 mRNA [2]) [nM] | YAP1 (% UTC) (Yap1 mRNA [1]; [4]) | YAP1 (% UTC) (Yap1 mRNA [1]; Yap1 mRNA as percent of untreated control, A-431 cells, Table 30) | YAP1 (% UTC) (Yap1 mRNA [1]; [5])
1 | 1074418 (kT*kT*k[5mC]*dT*dT*dT*dA*dG*dA*dG*d[5mC]*d[5mC]*dA*kA*k[5mC]*kT; antisense) [compound 1074418] | 4 | 55 | 26 | 9 | 4 | < 20 |  |  | 
2 | 1075089 (k[5mC]*kA*kT*dT*dT*dA*dT*dA*dG*dT*d[5mC]*dA*dG*kG*kT*kT; antisense) [compound 1075089] |  | 45 | 9 | 3 | 3 | < 20 | 2 |  | 
3 | 1075792 (kG*kA*kT*dT*dA*dG*dA*dA*dA*dG*dT*dG*d[5mC]*k[5mC]*kT*kT; antisense) [compound 1075792] |  | 79 | 41 | 15 | 10 | 100 |  | 6 | 
4 | 1074579 (DNA k[5mC]*k[5mC]*kA*d[5mC]*dT*dA*dT*dA*dA*dA*dG*d[5mC]*dT*kT*kA*kT) [compound 1074579] |  | 54 | 22 | 8 | 5 | < 20 |  |  | 6
5 | 1074450 (kA*k[5mC]*kT*dA*dA*dT*dG*dA*dT*dA*dG*d[5mC]*dA*k[5mC]*kT*kA; antisense) [compound 1074450] | 5 | 54 | 22 | 7 | 5 | < 20 |  |  | 
6 | 1074578 (DNA kG*k[5mC]*kT*dT*dA*dT*dT*dT*d[5mC]*dT*dG*dT*d[5mC]*kA*kT*kG) [compound 1074578] | 8 | 66 | 30 | 18 | 11 | 100 |  |  | 
7 | 1074675 (antisense kA*kA*kA*dT*dT*dA*dT*dA*dG*dG*d[5mC]*dA*d[5mC]*kT*k[5mC]*k[5mC]) [compound 1074675] |  | 47 | 18 | 6 | 3 | < 20 |  |  | 6
8 | 1074451 (kG*kA*k[5mC]*dT*dA*dA*dT*dG*dA*dT*dA*dG*d[5mC]*kA*k[5mC]*kT; antisense) [compound 1074451] |  | 63 | 26 | 8 | 4 | 40 |  |  | 6
9 | 1076017 (k[5mC]*kT*kA*dA*dT*dA*dG*dG*dA*dT*dG*dG*dA*kT*kT*k[5mC]; antisense) [compound 1076017] |  | 59 | 25 | 9 | 5 | 30 | 5 |  | 
10 | 1075249 (kA*kT*kT*dA*d[5mC]*dG*dA*dT*dT*dA*dG*dA*dT*k[5mC]*kA*kG; antisense) [compound 1075249] |  | 77 | 37 | 16 | 8 | 100 | 5 |  | 
